Laboratory results as given in ChEMBL document CHEMBL2390909, “2-Arylpaullones are selective antitrypanosomal agents” (Eur J Med Chem, 2013).

Key:
[1] = Cytotoxicity against human THP1 macrophages after 48 hrs by Alamar Blue assay; format: cell-based; details: THP-1 macrophages
[2] = test system: Trypanosoma brucei rhodesiense; assay: Antitrypanosomal activity against blood stage of Trypanosoma brucei rhodesiense STIB 900 (S704) Tanzania after 70 hrs by Alamar Blue assay; format: functional; details: STIB 900, 70 h
[3] = Selectivity index, ratio of GI50 for human THP1 macrophages to GI50 for blood stage of Trypanosoma brucei rhodesiense STIB 900

SMILES | GI50 [2] [µM] | GI50 at 48 h [1] [µM] | RatioGI50 [3]
CC(C)(C)c1ccc2[nH]c3c(c2c1)CC(=O)Nc1ccc(/C=C/C(=O)N2CCOCC2)cc1-3 | 3.9 | 13.7 | 3.5
CC(C)(C)c1ccc2[nH]c3c(c2c1)CC(=O)Nc1ccc(/C=C/C(=O)N2CCCCC2)cc1-3 | 4.7 | 6.2 | 1.3
CC(C)(C)c1ccc2[nH]c3c(c2c1)CC(=O)Nc1ccc(/C=C/C(=O)NCc2ccccc2)cc1-3 | 3.5 | 0.93 | <1
CN1CCN(C(=O)/C=C/c2ccc3c(c2)-c2[nH]c4ccc(C(C)(C)C)cc4c2CC(=O)N3)CC1 | 24.4 | 17.8 | <1
CC(C)(C)c1ccc2[nH]c3c(c2c1)CC(=O)Nc1ccc(-c2ccc(C(F)(F)F)cc2)cc1-3 | 2.6 | 55.1 | 21.2
CC(C)(C)c1ccc2[nH]c3c(c2c1)CC(=O)Nc1ccc(-c2ccc(OC(F)(F)F)cc2)cc1-3 | 3 | > 100 | >33.3
CC(C)(C)c1ccc2[nH]c3c(c2c1)CC(=O)Nc1ccc(/C=C/C(=O)c2ccccc2)cc1-3 | 4 | 17.6 | 4.4
COc1ccc(C(=O)/C=C/c2ccc3c(c2)-c2[nH]c4ccc(C(C)(C)C)cc4c2CC(=O)N3)cc1 | 12.2 | 32.6 | 2.7
CC(C)(C)c1ccc2[nH]c3c(c2c1)CC(=O)Nc1ccc(/C=C/C(=O)c2ccc(Cl)cc2)cc1-3 | 18.3 | 40.8 | 2.2
CC(C)(C)c1ccc2[nH]c3c(c2c1)CC(=O)Nc1ccc(/C=C/C(=O)c2cccnc2)cc1-3 | 9 | 47.9 | 8.7
COc1cc(C(=O)/C=C/c2ccc3c(c2)-c2[nH]c4ccc(C(C)(C)C)cc4c2CC(=O)N3)cc(OC)c1OC | 2.6 | 14.7 | 5.6
COc1ccc(C(=O)/C=C/c2ccc3c(c2)-c2[nH]c4ccc(C(C)(C)C)cc4c2CC(=O)N3)c(OC)c1 | 5.4 | 31.4 | 5.8
COc1ccc(C(=O)/C=C/c2ccc3c(c2)-c2[nH]c4ccc(C(C)(C)C)cc4c2CC(=O)N3)cc1OC | 4.2 | 9.6 | 2.3
CC(C)(C)c1ccc2[nH]c3c(c2c1)CC(=O)Nc1ccc(/C=C/C(=O)c2ccc(O)cc2)cc1-3 | 7.4 | 72.6 | 9.8

These reach a lower GI50 [2]. Values come first.

GI50 [2] [µM] | SMILES | GI50 at 48 h [1] [µM] | RatioGI50 [3]
0.61 | CC(C)(C)c1ccc2[nH]c3c(c2c1)CC(=O)Nc1ccc(C(=O)/C=C/c2ccccc2)cc1-3 | > 100 | >163.9
0.72 | COc1ccc(-c2ccc3c(c2)-c2[nH]c4ccc(C(C)(C)C)cc4c2CC(=O)N3)cc1 | > 100 | >138.9
1.6 | COc1cccc(-c2ccc3c(c2)-c2[nH]c4ccc(C(C)(C)C)cc4c2CC(=O)N3)c1 | > 100 | >62.5
2.3 | CN(C)c1cccc(-c2ccc3c(c2)-c2[nH]c4ccc(C(C)(C)C)cc4c2CC(=O)N3)c1 | 93.9 | 40.8
0.76 | CC(C)(C)c1ccc2[nH]c3c(c2c1)CC(=O)Nc1ccc(-c2ccc4c(c2)OCO4)cc1-3 | > 100 | >131.6
0.51 | CC(C)(C)c1ccc2[nH]c3c(c2c1)CC(=O)Nc1ccc(-c2ccc(N4CCOCC4)cc2)cc1-3 | 80 | 156.9
2.3 | CC(C)(C)c1ccc2[nH]c3c(c2c1)CC(=O)Nc1ccc(CCC(=O)c2ccccc2)cc1-3 | > 100 | >88.8
1.1 | CCN(CC)C(=O)/C=C/c1ccc2c(c1)-c1[nH]c3ccc(C(C)(C)C)cc3c1CC(=O)N2 | 4.1 | 3.7
1.5 | CC(C)(C)c1ccc2[nH]c3c(c2c1)CC(=O)Nc1ccc(/C=C/C(=O)Nc2ccccc2)cc1-3 | 0.34 | <1
1.6 | CC(C)(C)c1ccc2[nH]c3c(c2c1)CC(=O)Nc1ccc(/C=C/C(=O)Nc2cccc(Cl)c2)cc1-3 | 0.85 | <1
2.5 | CC(C)(C)c1ccc2[nH]c3c(c2c1)CC(=O)Nc1ccc(/C=C/C(=O)Nc2ccc(Cl)cc2)cc1-3 | 0.47 | <1
1.7 | Cc1ccc(NC(=O)/C=C/c2ccc3c(c2)-c2[nH]c4ccc(C(C)(C)C)cc4c2CC(=O)N3)cc1 | 1.3 | <1
1.5 | COc1ccc(NC(=O)/C=C/c2ccc3c(c2)-c2[nH]c4ccc(C(C)(C)C)cc4c2CC(=O)N3)cc1 | 0.36 | <1
1.8 | CC(C)(C)c1ccc2[nH]c3c(c2c1)CC(=O)Nc1ccc(-c2ccccc2)cc1-3 | > 100 | >55.6
1.7 | COCCc1ccc(OCc2cccc(-c3ccc4c(c3)-c3[nH]c5ccc(C(C)(C)C)cc5c3CC(=O)N4)c2)cc1 | 12.9 | 7.6
0.57 | CC(C)(C)c1ccc2[nH]c3c(c2c1)CC(=O)Nc1ccc(/C=C/C(=O)c2ccco2)cc1-3 | 1.3 | 2.3
1.2 | COc1ccc(OC)c(C(=O)/C=C/c2ccc3c(c2)-c2[nH]c4ccc(C(C)(C)C)cc4c2CC(=O)N3)c1 | 2.2 | 1.8
1.1 | CC(C)(C)c1ccc2[nH]c3c(c2c1)CC(=O)Nc1ccc(/C=C/C(=O)c2cccs2)cc1-3 | 3.7 | 3.4
